Consider seven molecules from ChEMBL document CHEMBL5036383, “Azapodophyllotoxin Causes Lymphoma and Kidney Cancer Regression by Disrupting Tubulin and Monoglycerols” (2022).

Active and inactive are the calls of the source. The calls are words filed in the database; no cut-off is given here.

Test [1] in a line: Anticancer activity against human P493-6 cells assessed as reduction of cell viability at 280 nM relative to control. In kind it is functional.
The test system of test [2] is A498. Description: Antitumour activity against human A498 cells xenografted in mouse assessed as reduction of tumour weight, IT measured after 1 week. In kind it is functional, cell-based. As to conditions: time 1.0 weeks.
The target in the next test is Tubulin (Homo sapiens) (UniProt P68371+Q9H4B7+P0DPH7+P68366+Q13509+Q71U36+P04350+Q3ZCM7+P07437+P68363+Q9BQE3+Q6PEY2+Q13885+Q9BVA1+Q9BUF5). Description: Inhibition of tubulin polymerization (unknown origin). In kind it is protein-complex assay.
For test [3], the system named is KOPTK1. Description: Anticancer activity against human KOPT-K1 cells assessed as reduction of cell viability at 140 nM relative to control. In kind it is functional.
Test [4] in a line: Anticancer activity against human 6780 cell cells assessed as reduction of cell viability at 140 nM relative to control. In kind it is functional.
Test [5] deals with A498. Description: Anticancer activity against human A498 cells assessed as reduction of cell viability at 70 nM relative to control. In kind it is functional.
Test [6] concerns KOPTK1. Description: Anticancer activity against human KOPT-K1 cells assessed as reduction of cell viability at 280 nM relative to control. In kind it is functional.
Test [7] can be described thus: Anticancer activity against transgenic mouse RCC E28 cells assessed as reduction of cell proliferation at 140 nM for 48 hrs relative to 70 uM treatment. In kind it is functional.
Test [8] concerns Mus musculus. The experiment in a line: Antitubulin activity against human CCRF-CEM cells xenografted in IT dosed mouse assessed as fold decrease in tubulin fine needle aspirates treated for 1 week by nano-immuno assay relative to control. In kind it is functional. As to conditions: time 1 weeks. On the technique in general: Xenograft models place foreign cells or tissue in a host animal.

The subject of test [9] is CCRF-CEM. The experiment in a line: Inhibition of lipid metabolism in human CCRF-CEM cells assessed as increase in mono glycerol level measured after 1 week treatment by DESI-MSI. In kind it is functional, cell-based. Conditions: time 1.0 weeks.
For test [10], the system named is CCRF-CEM. The experiment in a line: Antitumour activity against human CCRF-CEM xenografted in mouse assessed as reduction of tumour volume, IT measured after 1 week. In kind it is functional. Conditions: time 1.0 weeks.
A short description of test [11]: Anticancer activity against human P493-6 cells assessed as reduction of cell viability at 70 nM relative to control. In kind it is functional.
A short description of test [12]: Anticancer activity against human P493-6 cells assessed as reduction of cell viability at 140 nM relative to control. In kind it is functional.
The test system of test [13] is CCRF-CEM. Description: Anticancer activity against human CCRF-CEM cells assessed as reduction of cell viability at 70 nM relative to control. In kind it is functional.
Test [14] in a line: Anticancer activity against human DND41 cells assessed as reduction of cell viability at 70 nM relative to control. In kind it is functional.
Test [15] can be described thus: Anticancer activity against human 6780 cell cells assessed as reduction of cell viability at 70 nM relative to control. In kind it is functional.
Test [16] is described as follows: Anticancer activity against human 6780 cell cells assessed as reduction of cell viability at 280 nM relative to control. In kind it is functional.
For test [17], the system named is CCRF-CEM. The experiment in a line: Anticancer activity against human CCRF-CEM cells assessed as reduction of cell viability at 280 nM relative to control. In kind it is functional.
Test [18] concerns KOPTK1. The experiment in a line: Anticancer activity against human KOPT-K1 cells assessed as reduction of cell viability at 70 nM relative to control. In kind it is functional.
In test [19] the test system is Mus musculus. Description: Antitubulin activity against human CCRF-CEM cells xenografted in IT dosed mouse assessed as decrease in tubulin level treated for 1 week by nano-immuno assay. In kind it is functional, organism-based. As to conditions: time 1.0 weeks.
The subject of test [20] is CCRF-CEM. Description: Anticancer activity against human CCRF-CEM cells assessed as reduction of cell viability at 140 nM relative to control. In kind it is functional.
The nature of test [21]: Anticancer activity against transgenic mouse RCC E28 cells assessed as reduction of cell proliferation at 70 nM for 48 hrs relative to control. In kind it is functional. The arrangement: scale not given: the % may be the effect or the level left.

Turning to `COc1cc(C2C3=C(COC3=O)N(CCO)c3cc4c(cc32)CCC4)cc(OC)c1OC` (stereo not drawn), the Activity is listed as 98% in [1]; 87% in the test with KOPTK1 [3]; 94% in test [4]; 95% in the test on A498 [5]; 89% with KOPTK1 [6]; 85% in [11]. The Activity is 90% in test [12]; 90% in the test on CCRF-CEM [13]; 95% in test [14]; 90% in [15]; 96% in test [16]; 96% with CCRF-CEM [17]. Also, the Activity with KOPTK1 [18] is recorded as 85%; with CCRF-CEM [20] it was 92%; in [21], 90%. Moreover, the outcome in the test on A498 [2], in the test with CCRF-CEM [10] and in the test with Mus musculus [19] was Active. Further, the inhibition entry on Tubulin (Homo sapiens) and with CCRF-CEM [9] was “Active” in each case. Moreover, the “fold change (FC)” value (in test [7]; with Mus musculus [8]) was 2 throughout.

Turning to `O=C1OCC2=C1C(c1ccccc1)c1cc3c(cc1N2CCO)OCO3` (stereo not drawn), the Activity in the test with A498 [5] is reported as 30%.

Take `O=C1OCC2=C1C(c1ccccc1)c1cc3c(cc1N2CCO)OCCO3` (stereo not drawn): the Activity in the test on A498 [5] came to 30%.

In the case of `O=C1OCC2=C1C(c1cccc(Br)c1)c1cc3c(cc1N2CCO)OCCO3` (stereo not drawn), the Activity with A498 [5] turned out to be 87%.

`O=C1OCC2=C1C(c1cccc(C(F)(F)F)c1)c1cc3c(cc1N2CCO)CCC3` (stereo not drawn): the Activity in the test on A498 [5] amounted to 83%.

As to `O=C1OCC2=C1C(c1cccc(Br)c1)c1cc3c(cc1N2CCO)CCC3` (stereo not drawn), the Activity in the test with A498 [5] was 90%.

Regarding `O=C1OCC2=C1C(c1cccc(C(F)(F)F)c1)c1cc3c(cc1N2CCO)OCCO3` (stereo not drawn), in the test on A498 [5], the Activity is recorded as 80%.
